We go through 11 compounds from patent US4273777A, “Methods of treating mammals suffering from inflammation and pain” (Laboratorios Bago S.A., priority 1980, dated 1981).

Each structure is given as a SMILES string.

The nature of data set [1]: Influence on the gastro-intestinal tract (ulceration of the gastric epithelium, pylorus ligated, Shay et al.). The data set is classed as in vivo, rat (Sprague Dawley). How it is done: Influence on the gastro-intestinal tract
Ten male rats of Sprague Dawley strain, weighing 200-300 g were used for each compound tested. According to the method of Shay et al. (Shay, H., Komapov. S. A., Feb. S. S., Meranir, D., Gruenstein, M., Siplet, H. Gastroenterology 5, 43, 1945), under anesthesia, the pylorus was ligated and 4 hours later test compounds were orally administered. The animal was sacrificed 1 hour after compound administration. The stomach was removed and examined for macroscopic damage. The ulceration of the gastric epithelium was evaluated by the following evaluation: 0=no hemorrhage sites; 1=some isolated hemorrhagic sites; 2=redness of the gastric epithelium; 3=1 to 5 small ulcers with a diameter smaller than 3 mm; 4=many small ulcers; 5=ulcers--greater than 3 mm; 6=perforated ulcer.

A short description of data set [2]: Tail pressure test (analgesic activity). The data set is classed as in vivo, mouse (Rockland). To be noted: oral; control (water) 0; dose mg/kg: ASA 100, pivaloyloxymethyl TPA ester 166 and 66, CPA 50, TPA 47, phthalidyl CPA ester 72, pivaloyloxymethyl CPA ester 69, xylyl anthranylates 77 (phthalidyl)/74 (pivaloyloxymethyl), TAA 50, its phthalidyl ester 73.5, pivaloyloxymethyl ester 82. On the procedure:
Tail pressure test: Ten male mice of Rockland strain weighing 20-25 g were used for each compound tested. The response threshold on applying pressure to the tail was determined with an analgesy meter at 15 and 60 minutes after oral administration of the test compound. The pressure at which a struggle was elicited was read.

The nature of data set [3]: Randall-Selitto test (analgesic activity, carrageenin inflamed foot). The data set is classed as in vivo, mouse (Rockland). The conditions noted are these: oral, 30 minutes before carrageenin; control (water) 0; doses as for tail pressure (pivaloyloxymethyl TPA ester 166 mg/kg, 66 mg/kg). How it is done:
Randall-Selitto's method: Ten male mice of Rockland strain weighing 25 g were used for each compound tested. 0.1 ml of 1% carrageenin saline suspension was injected into the subplantar region of the right foot. The test compounds were orally administered 30 minutes before the injection. At hourly intervals for 3 hours after the carrageenin injection, the pain threshold for the inflammed feet was measured determining the amount of pressure with an analgesy meter.

The nature of data set [4]: Carrageenin induced edema test (anti-inflammatory activity). Further details: species or system rat (Sprague Dawley). The conditions noted are these: rat, in vivo. On the procedure:
Anti-inflammatory Activity (Carrageenin induced edema test)
Fifteen to twenty male rats of Sprague Dawley strain weighing 150-200 g, were employed for each compound tested. 0.1 ml of 1% carrageenin saline suspension was injected into the subplantar region of the right hind-paw. The test compounds were orally administered 30 minutes prior to the injection of carrageenin and the foot volume was determined 1, 3 and 5 hours after the injection of carrageenin. The percent swelling in the foot was obtained by comparing the volume before and after the injection of carrageenin, and the rate of inhibition in the treated animals was calculated.
(The carrageenan paw model is a standard test of acute inflammation.)

Where [5] appears, read: oral, 1 hour after compound, score 0=no hemorrhage sites to 6=perforated ulcer, control 3.0, dose mg/kg: phenylbutazone 75, ASA 100, TPA 47, pivaloyloxymethyl TPA ester 66, CPA 150, phthalidyl CPA ester 216, pivaloyloxymethyl CPA ester 207, xylyl anthranylates 186/196, TAA 60, its esters 88/84.5.
[6] abbreviates: versus control (distilled water) 3.0, oral.

On to `O=C(O)c1cccnc1Nc1cccc(C(F)(F)F)c1` [2-(3'-trifluoromethyl-anilino)-3-pyridinecarboxylic acid, reference compound], for which the “Evaluation (ulceration of the gastric epithelium)” value in data set [1] (setting [5]) worked out at 3.9. Besides, in data set [1] (setting [6]), the “Increase (of ulceration evaluation over control)” value (“Increase” below) is 0.9.

Regarding `CC(=O)Oc1ccccc1C(=O)O` [Acetylsalicylic acid (ASA), Acetylsalicylic acid, reference compound], in data set [1] (rat, in vivo, po), the “Evaluation (ulceration of the gastric epithelium)” value stood at 4.1 and the “Increase” value amounted to 1.1.

Turning to `O=C(O)c1ccccc1Nc1cccc(C(F)(F)F)c1` [N-(3'-trifluorotolyl)-anthranylic acid, reference compound], the “Relative strength, Tail pressure test” value in data set [2] came to 0.5. Also, the “Relative strength, Randall-Selitto test” value in data set [3] was found to be 5.3. Moreover, the “Evaluation (ulceration of the gastric epithelium)” value in data set [1] (setting [5]) came to 4.9. Besides, in data set [1] (setting [6]), the “Increase” value turned out to be 1.9.

Regarding `CCCCC1C(=O)N(c2ccccc2)N(c2ccccc2)C1=O` [Phenylbutazone, reference compound], in data set [1] (rat, in vivo, po), the “Evaluation (ulceration of the gastric epithelium)” value turned out to be 5.5 and the “Increase” value stood at 2.5.

Regarding `Cc1cccc(Nc2ccccc2C(=O)OC2OC(=O)c3ccccc32)c1C` (stereo not shown) [Phthalidyl N-(2',3'-xylyl) anthranylate], the “Relative strength, Tail pressure test” value in data set [2] worked out at 0.56. For the same compound, in data set [3], the “Relative strength, Randall-Selitto test” value worked out at 1.37. For the same compound, in data set [1] (setting [5]), the “Evaluation (ulceration of the gastric epithelium)” value worked out at 3.3. Moreover, the “Increase” value in data set [1] (setting [6]) is listed as 0.3.

As to `O=C(OC1OC(=O)c2ccccc21)c1ccccc1Nc1cccc(C(F)(F)F)c1` (stereo not shown) [Phthalidyl N-(3'-trifluorotolyl) anthranylate], in data set [2], the “Relative strength, Tail pressure test” value is given as 0.74. In data set [3], the “Relative strength, Randall-Selitto test” value is listed as 10.6. In addition, in data set [1] (setting [5]), the “Evaluation (ulceration of the gastric epithelium)” value was determined as 3.5. Moreover, the “Increase” value in data set [1] (setting [6]) came out at 0.5.

For the compound `Cc1c(Cl)cccc1Nc1ncccc1C(=O)OC1OC(=O)c2ccccc21` (stereo not shown) [Phthalydil 2(3'-chloro-2'-methylanilino)pyridine 3-carboxylate], the “Evaluation (ulceration of the gastric epithelium)” value in data set [1] (setting [5]) amounted to 3.6. For the same compound, the “Increase” value in data set [1] (setting [6]) is 0.6.

With `Cc1c(Cl)cccc1Nc1ncccc1C(=O)OCOC(=O)C(C)(C)C` [Pivaloyloxymethyl 2-(3'-chloro-2'-methylanilino)-pyridine-3-carboxylate], the “Evaluation (ulceration of the gastric epithelium)” value in data set [1] (setting [5]) turned out to be 3.0.

On to `CC(C)(C)C(=O)OCOC(=O)c1cccnc1Nc1cccc(C(F)(F)F)c1` [Pivaloyloxymethyl 2-(3'-trifluoromethylanilino)-pyridine-3-carboxylate], for which, in data set [4], the “anti-inflammatory activity, in words” value is recorded as “act as anti-inflammatory agent more than as antinociceptive agents”. Moreover, in data set [1] (setting [5]), the “Evaluation (ulceration of the gastric epithelium)” value came out at 3.2. The “Increase” value in data set [1] (setting [6]) was 0.2.

For `Cc1cccc(Nc2ccccc2C(=O)OCOC(=O)C(C)(C)C)c1C` [Pivaloyloxymethyl N-(2',3'-xylyl) anthranylate], the “Evaluation (ulceration of the gastric epithelium)” value in data set [1] (setting [5]) was 3.4. Further, the “Increase” value in data set [1] (setting [6]) turned out to be 0.4.

Regarding `CC(C)(C)C(=O)OCOC(=O)c1ccccc1Nc1cccc(C(F)(F)F)c1` [Pivaloyloxymethyl N-(3'-trifluorotolyl) anthranylate], the “Evaluation (ulceration of the gastric epithelium)” value in data set [1] (setting [5]) is 3.6. For the same compound, in data set [1] (setting [6]), the “Increase” value was found to be 0.6.
